20 compounds from US10787462B2, “Heterocyclic compound” (TAKEDA PHARMACEUTICAL COMPANY LIMITED, priority 2015, dated 2020) can be followed below.

The target of the test is T1, human RIPK1 (1-375) (Homo sapiens, UniProt Q13546).
T1 construct: human RIPK1 (1-375) gene; GST; made in house; host or cells: Sf-9 insect cells
T1 sequence (Q13546 1-375): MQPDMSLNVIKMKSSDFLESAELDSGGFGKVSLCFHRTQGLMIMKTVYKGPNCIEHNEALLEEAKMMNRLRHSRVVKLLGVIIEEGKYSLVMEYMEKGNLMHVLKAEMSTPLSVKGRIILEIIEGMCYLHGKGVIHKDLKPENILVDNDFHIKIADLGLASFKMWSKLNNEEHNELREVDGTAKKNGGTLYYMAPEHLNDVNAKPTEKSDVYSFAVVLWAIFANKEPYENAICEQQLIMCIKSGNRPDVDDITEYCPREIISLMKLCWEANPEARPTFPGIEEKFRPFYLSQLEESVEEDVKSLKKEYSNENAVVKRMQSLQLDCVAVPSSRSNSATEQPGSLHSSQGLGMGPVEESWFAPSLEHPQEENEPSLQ
In words: Human RIPK1 enzyme inhibitory effect (ADP-Glo Kinase Assay). The format is biochemical. As to conditions: well without enzyme = 100% inhibition; for inhibition at 10 µM: read-out: human RIPK1 enzyme inhibitory effect at 10 μM (% inhibition), 10 μM test compound; for human RIPK1 enzyme inhibitory effect at 10 μM (% inhibition): 10 μM test compound. In outline: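 Human RIPK1 (1-375), GST-purified from Sf-9 cells, preincubated 20 min at room temperature with compound in 25 mM HEPES pH 7.5, 10 mM MgCl2, 0.01% Tween-20, 2 mM DTT. Reaction started with 0.6 mM ATP solution (stock), run 120 min at room temperature. ADP measured by ADP-Glo luminescence.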
Background: In ADP-Glo the light output rises with the ADP produced.

As usually defined, the inhibition is the relative decrease from the control value, in per cent. Consider `CN1C(=O)[C@@H](N2CCc3c(nn(Cc4ccccc4)c3Cl)C2=O)COc2cc(C(=O)NCC(C)(C)O)ccc21` [Example 62, (3S)-3-(2-benzyl-3-chloro-7-oxo-2,4,5,7-tetrahydro-6H-pyrazolo[3,4-c]pyridin-6-yl)-N-(2-hydroxy-2-methylpropyl)-5-methyl-4-oxo-2,3,4,5-tetrahydro-1,5-benzoxazepine-8-carboxamide], for which the inhibition at 10 µM was found to be 101%. On to `CN1C(=O)[C@@H](N2CCc3c(nn(Cc4ccccc4)c3Cl)C2=O)COc2cc(C(N)=O)ccc21` [Example 64, (3S)-3-(2-benzyl-3-chloro-7-oxo-2,4,5,7-tetrahydro-6H-pyrazolo[3,4-c]pyridin-6-yl)-5-methyl-4-oxo-2,3,4,5-tetrahydro-1,5-benzoxazepine-8-carboxamide], for which the inhibition at 10 µM was 101%. Turning to `CN1C(=O)C(N2CCc3c(nn(Cc4ccccc4)c3Cl)C2=O)CCc2ncccc21` (centres unmarked) [Example 65, 7-(2-benzyl-3-chloro-7-oxo-2,4,5,7-tetrahydro-6H-pyrazolo[3,4-c]pyridin-6-yl)-5-methyl-5,7,8,9-tetrahydro-6H-pyrido[3,2-b]azepin-6-one], the “human RIPK1 enzyme inhibitory effect at 10 μM (% inhibition)” value came to 99%. On the same count and under the same terms, then `CN1C(=O)C(N2CCc3c(nn(Cc4ccccc4)c3Cl)C2=O)CCc2ncccc21` (stereo not drawn) [Example 66, 7-(2-benzyl-3-chloro-7-oxo-2,4,5,7-tetrahydro-6H-pyrazolo[3,4-c]pyridin-6-yl)-5-methyl-5,7,8,9-tetrahydro-6H-pyrido[3,2-b]azepin-6-one (optical isomer)], with 100%; and `CN1C(=O)C(N2CCc3c(nn(Cc4ccccc4)c3Cl)C2=O)CCc2ncccc21` (stereo not drawn) [Example 67, 7-(2-benzyl-3-chloro-7-oxo-2,4,5,7-tetrahydro-6H-pyrazolo[3,4-c]pyridin-6-yl)-5-methyl-5,7,8,9-tetrahydro-6H-pyrido[3,2-b]azepin-6-one (optical isomer)], with 73%.

Regarding `CC1Cc2cn(Cc3ccccc3)nc2C(=O)N1[C@H]1COc2ccccc2N(C)C1=O` (stereo partly drawn) [Example 68, (3S)-3-(2-benzyl-5-methyl-7-oxo-2,4,5,7-tetrahydro-6H-pyrazolo[3,4-c]pyridin-6-yl)-5-methyl-2,3-dihydro-1,5-benzoxazepin-4(5H)-one], the inhibition at 10 µM came to 100%. Still for that read-out and setting: then `CN1C(=O)[C@@H](N2CCc3cn(Cc4ccccc4)nc3C2=O)CS(=O)(=O)c2ccccc21` [Example 69, (3R)-3-(2-benzyl-7-oxo-2,4,5,7-tetrahydro-6H-pyrazolo[3,4-c]pyridin-6-yl)-5-methyl-2,3-dihydro-1,5-benzthiazepin-4(5H)-one 1,1-dioxide], with 99%. On the same count and under the same terms, in the case of `CN1C(=O)[C@@H](N2CCc3nn(Cc4ccccc4)cc3C2=O)COc2ccccc21` [Example 70, (3S)-3-(2-benzyl-4-oxo-2,4,6,7-tetrahydro-5H-pyrazolo[4,3-c]pyridin-5-yl)-5-methyl-2,3-dihydro-1,5-benzoxazepin-4(5H)-one] it was 92%; in that of `CN1C(=O)[C@@H](N2CCc3cn(Cc4ccccc4)nc3C2=O)COc2ccc(C(N)=O)cc21` [Example 72, (3S)-3-(2-benzyl-7-oxo-2,4,5,7-tetrahydro-6H-pyrazolo[3,4-c]pyridin-6-yl)-5-methyl-4-oxo-2,3,4,5-tetrahydro-1,5-benzoxazepine-7-carboxamide], 99%.

Regarding `Cc1nccnc1Cn1nc2c(c1Cl)CCN([C@H]1COc3ccccc3N(C)C1=O)C2=O` [Example 73, (3S)-3-(3-chloro-2-((3-methylpyrazin-2-yl)methyl)-7-oxo-2,4,5,7-tetrahydro-6H-pyrazolo[3,4-c]pyridin-6-yl)-5-methyl-2,3-dihydro-1,5-benzoxazepin-4(5H)-one], the inhibition at 10 µM worked out at 91%. Still for that read-out and setting: then `CN1C(=O)[C@@H](N2CCc3c(nn(Cc4cnccn4)c3Cl)C2=O)COc2cc(F)ccc21` [Example 75, (3S)-3-(3-chloro-7-oxo-2-(pyrazin-2-ylmethyl)-2,4,5,7-tetrahydro-6H-pyrazolo[3,4-c]pyridin-6-yl)-8-fluoro-5-methyl-2,3-dihydro-1,5-benzoxazepin-4(5H)-one], with 101%. The same measure, in the same setting: in the case of `CN1C(=O)[C@@H](N2CCc3c(nn(Cc4ccccc4)c3Cl)C2=O)COc2ccccc21` [Example 76, (3S)-3-(2-benzyl-3-chloro-7-oxo-2,4,5,7-tetrahydro-6H-pyrazolo[3,4-c]pyridin-6-yl)-5-methyl-2,3-dihydro-1,5-benzoxazepin-4(5H)-one] it was 97%; in that of `CN1C(=O)[C@@H](N2CCc3cn(Cc4ccccc4F)nc3C2=O)COc2ccc(C#N)cc21` [Example 77, (3S)-3-(2-(2-fluorobenzyl)-7-oxo-2,4,5,7-tetrahydro-6H-pyrazolo[3,4-c]pyridin-6-yl)-5-methyl-4-oxo-2,3,4,5-tetrahydro-1,5-benzoxazepine-7-carbonitrile], 101%.

In the case of `CN1C(=O)[C@@H](N2Cc3c(nn(Cc4ccccc4)c3Cl)C2=O)COc2ccccc21` [Example 78, (3S)-3-(2-benzyl-3-chloro-6-oxo-2,6-dihydropyrrolo[3,4-c]pyrazol-5(4H)-yl)-5-methyl-2.3-dihydro-1,5-benzoxazepin-4(5H)-one], the inhibition at 10 µM is 99%. Still for that read-out and setting: in the case of `Cc1c2c(nn1Cc1cnccn1)C(=O)N([C@H]1COc3ccccc3N(C)C1=O)CC2` [Example 79, (3S)-5-methyl-3-(3-methyl-7-oxo-2-(pyrazin-2-ylmethyl)-2,4,5,7-tetrahydro-6H-pyrazolo[3,4-c]pyridin-6-yl)-2,3-dihydro-1,5-benzoxazepin-4(5H)-one] it was 100%. For the compound `CN1C(=O)[C@@H](N2CCc3c(nn(Cc4cnccn4)c3Cl)C2=O)COc2ccccc21` [Example 80, (3S)-3-(3-chloro-7-oxo-2-(pyrazin-2-ylmethyl)-2,4,5,7-tetrahydro-6H-pyrazolo[3,4-c]pyridin-6-yl)-5-methyl-2,3-dihydro-1,5-benzoxazepin-4(5H)-one], the inhibition at 10 µM amounted to 101%. In the case of `CN1C(=O)[C@@H](N2CCc3c(nn(Cc4ccccc4)c3Cl)C2=O)COc2ccc(C(N)=O)cc21` [Example 81, (3S)-3-(2-benzyl-3-chloro-7-oxo-2,4,5,7-tetrahydro-6H-pyrazolo[3,4-c]pyridin-6-yl)-5-methyl-4-oxo-2,3,4,5-tetrahydro-1,5-benzoxazepine-7-carboxamide], the inhibition at 10 µM came to 101%. The same measure, in the same setting: in the case of `O=C1Nc2ccc(Br)cc2OC[C@@H]1N1CCc2c(nn(Cc3ccccc3)c2Cl)C1=O` [Example 82, (3S)-3-(2-benzyl-3-chloro-7-oxo-2,4,5,7-tetrahydro-6H-pyrazolo[3,4-c]pyridin-6-yl)-8-bromo-2,3-dihydro-1,5-benzoxazepin-4(5H)-one] it was 99%.

`N#Cc1ccc2c(c1)OC[C@H](N1CCc3c(nn(Cc4ccccc4)c3Cl)C1=O)C(=O)N2` [Example 83, (3S)-3-(2-benzyl-3-chloro-7-oxo-2,4,5,7-tetrahydro-6H-pyrazolo[3,4-c]pyridin-6-yl)-4-oxo-2,3,4,5-tetrahydro-1,5-benzoxazepine-8-carbonitrile]: the inhibition at 10 µM was 92%. The same measure, in the same setting: in the case of `Cc1c2c(nn1Cc1ccccc1)C(=O)N([C@H]1COc3cc(Br)ccc3N(C)C1=O)CC2` [Example 84] it was 101%.
